Results reported in patent US20070161592A1, “Method of treating fear” (priority 2005, published 2007).

How the values were obtained:
[1] = system: pyramidal neurons in layer II/III of ACC slices; assay: LTP induced by pairing training, whole-cell patch-clamp recordings in ACC slices; type: cell-based, mouse
Description: Experiments were performed in a recording chamber on the stage of an Axioskop 2FS microscope with infrared DIC optics for visualizing whole-cell patch clamp recordings. EPSCs were recorded from layer II-III neurons using an Axon 200B amplifier (Axon Instruments, CA) and stimulations were delivered using a bipolar tungsten stimulating electrode placed in layer V of the ACC. In hippocampal slices, EPSCs were evoked by stimulating the Schaffer collateral-commissural pathway. EPSCs were induced by repetitive stimulations at 0.02 Hz and neurons were voltage clamped at −70 mV. […] The first protocol involved paired presynaptic 80 pulses at 2 Hz with postsynaptic depolarization at +30 mV (referred to as pairing training). The second involved paired 3 presynaptic stimuli that caused 3 EPSPs (10 ms ahead) with 3 postsynaptic APs at 30 Hz, paired 15 times every 5 s (named as EPSPs-APs protocol). The third involved theta-burst stimulation (5 trains of burst with 4 pulses at 100 Hz, at 200 ms interval; repeated 4 times at intervals of 10 s; named as TBS). The NMDAR-mediated component of EPSCs was pharmacologically isolated in Mg^2+-free ACSF containing: CNQX (20 μM), glycine (1 μM) and picrotoxin (100 μM). […] Neurons were voltage clamped at −60 mV and NMDARs-mediated EPSCs were evoked at 0.05 Hz. Picrotoxin (100 μM) was always present to block GABAA receptor-mediated inhibitory synaptic currents. The access resistance was 15-30 MΩ and was monitored throughout the experiment. […] Results are expressed as means±SEM. Statistical comparisons were performed using the Student t-test.
Whole-cell patch-clamp recordings were conducted in visually identified pyramidal neurons in layer II/III of ACC slices. Pyramidal neurons were identified by injecting depolarized currents into neurons to induce action potentials. […] Pyramidal neurons were also identified based on the pyramid shape of their somata by putting Lucifer yellow into the intracellular solution (FIG. 1A).

NMDAR-mediated signaling = settings: intra-hippocampal injections; cited from earlier work
adult ACC neurons [2] = assay: LTP induced by EPSPs-APs protocol in ACC slices; type: cell-based, mouse; settings: 0.4 μM
Description: (§1) Coronal brain slices ([…]) from 6-8-week-old C57BL/6 mice, containing ACC or hippocampus, were prepared using standard methods (Wei et al., 2001). Slices were transferred to a submerged recovery chamber containing oxygenated (95% O2 and 5% CO2) artificial cerebrospinal fluid (ACSF) (in mM: 124 NaCl, 4.4 KCl, 2 CaCl2, 1 MgSO4, 25 NaHCO3, 1 NaH2PO4, 10 glucose) at room temperature for at least 1 h.
(§2) Experiments were performed in a recording chamber on the stage of an Axioskop 2FS microscope with infrared DIC optics for visualizing whole-cell patch clamp recordings. EPSCs were recorded from layer II-III neurons using an Axon 200B amplifier (Axon Instruments, CA) and stimulations were delivered using a bipolar tungsten stimulating electrode placed in layer V of the ACC. In hippocampal slices, EPSCs were evoked by stimulating the Schaffer collateral-commissural pathway. EPSCs were induced by repetitive stimulations at 0.02 Hz and neurons were voltage clamped at −70 mV. The recording pipettes (3-5 MΩ) were filled with solution containing (mM) 145 K-gluconate, 5 NaCl, 1 MgCl2, 0.2 EGTA, 10 HEPES, 2 Mg-ATP, and 0.1 Na3-GTP (adjusted to pH 7.2 with KOH). After obtaining stable EPSCs for 10 min, three kinds of LTP induction paradigms were used within 12 min after establishing the whole-cell configuration to prevent wash out effect on LTP induction (Tsvetkov et al., 2002). The first protocol involved paired presynaptic 80 pulses at 2 Hz with postsynaptic depolarization at +30 mV (referred to as pairing training). The second involved paired 3 presynaptic stimuli that caused 3 EPSPs (10 ms ahead) with 3 postsynaptic APs at 30 Hz, paired 15 times every 5 s (named as EPSPs-APs protocol). The third involved theta-burst stimulation (5 trains of burst with 4 pulses at 100 Hz, at 200 ms interval; repeated 4 times at intervals of 10 s; named as TBS). The NMDAR-mediated component of EPSCs was pharmacologically isolated in Mg^2+-free ACSF containing: CNQX (20 μM), glycine (1 μM) and picrotoxin (100 μM). The patch electrodes contained (in mM) 102 cesium gluconate, 5 TEA-chloride, 3.7 NaCl, 11 BAPTA, 0.2 EGTA, 20 HEPES, 2 MgATP, 0.3 NaGTP, and 5 QX-314 chloride (adjusted to pH 7.2 with CsOH). Neurons were voltage clamped at −60 mV and NMDARs-mediated EPSCs were evoked at 0.05 Hz. Picrotoxin (100 μM) was always present to block GABAA receptor-mediated inhibitory synaptic currents. The access resistance was 15-30 MΩ and was monitored throughout the experiment. Data were discarded if access resistance changed by more than 15% during an experiment. Results are expressed as means±SEM. Statistical comparisons were performed using the Student t-test. […]

adult ACC neurons [3] = assay: LTP induced by theta-burst stimulation (TBS) in ACC slices; type: cell-based, mouse; settings: 0.4 μM
Description: as §1, §2

[4] = system: NMDAR-mediated currents in the ACC; assay: NMDAR-mediated EPSCs in the ACC; type: cell-based, mouse
Description: as §1
(§3) Experiments were performed in a recording chamber on the stage of an Axioskop 2FS microscope with infrared DIC optics for visualizing whole-cell patch clamp recordings. EPSCs were recorded from layer II-III neurons using an Axon 200B amplifier (Axon Instruments, CA) and stimulations were delivered using a bipolar tungsten stimulating electrode placed in layer V of the ACC. In hippocampal slices, EPSCs were evoked by stimulating the Schaffer collateral-commissural pathway. EPSCs were induced by repetitive stimulations at 0.02 Hz and neurons were voltage clamped at −70 mV. The recording pipettes (3-5 MΩ) were filled with solution containing (mM) 145 K-gluconate, 5 NaCl, 1 MgCl2, 0.2 EGTA, 10 HEPES, 2 Mg-ATP, and 0.1 Na3-GTP (adjusted to pH 7.2 with KOH). After obtaining stable EPSCs for 10 min, three kinds of LTP induction paradigms were used within 12 min after establishing the whole-cell configuration to prevent wash out effect on LTP induction (Tsvetkov et al., 2002). The first protocol involved paired presynaptic 80 pulses at 2 Hz with postsynaptic depolarization at +30 mV (referred to as pairing training). The second involved paired 3 presynaptic stimuli that caused 3 EPSPs (10 ms ahead) with 3 postsynaptic APs at 30 Hz, paired 15 times every 5 s (named as EPSPs-APs protocol). The third involved theta-burst stimulation (5 trains of burst with 4 pulses at 100 Hz, at 200 ms interval; repeated 4 times at intervals of 10 s; named as TBS). The NMDAR-mediated component of EPSCs was pharmacologically isolated in Mg^2+-free ACSF containing: CNQX (20 μM), glycine (1 μM) and picrotoxin (100 μM). The patch electrodes contained (in mM) 102 cesium gluconate, 5 TEA-chloride, 3.7 NaCl, 11 BAPTA, 0.2 EGTA, 20 HEPES, 2 MgATP, 0.3 NaGTP, and 5 QX-314 chloride (adjusted to pH 7.2 with CsOH). Neurons were voltage clamped at −60 mV and NMDARs-mediated EPSCs were evoked at 0.05 Hz. Picrotoxin (100 μM) was always present to block GABAA receptor-mediated inhibitory synaptic currents. The access resistance was 15-30 MΩ and was monitored throughout the experiment. Data were discarded if access resistance changed by more than 15% during an experiment. Results are expressed as means±SEM. Statistical comparisons were performed using the Student t-test.
(§4) One possible mechanism is that NR2B-containing receptors may contribute more to total NMDA currents in ACC synapses than in hippocampal synapses. […] Application of 0.1 μM or 0.4 μM NVP-AAM077 depressed total NMDAR-mediated currents by 59.0±4.3% (n=5) and 63.2±1.7% (n=6) in the ACC respectively (FIG. 5). On the other hand, application of 0.3 μM or 3 μM Ro25-6981 attenuated total NMDAR-mediated currents by 18.0±1.9% (n=5) and 18.1±3.4% (n=7) in the ACC respectively, showing that 0.3 μM Ro25-6981 was sufficient to block the NR2B-mediated currents (FIG. 5). This experiment was repeated in hippocampal CA1 neurons. […] However, unlike in the ACC, application of 0.3 μM Ro25-6981 alone potentiated, rather than blocked, total NMDAR-mediated currents by 51.3±16.4% in the hippocampus (FIG. 5).
The relative percentages of NR2A- and NR2B-mediated currents were determined by applying specific antagonists, NVP-AAM077 (0.4 μM) and Ro25-6981 (0.3 μM). The concentrations used here were based on the results from FIG. 5 and a recent study performed in the hippocampus (Liu et al., 2004). Application of NVP-AAMO77 depressed total NMDAR-mediated currents by 63.2±1.7% and the addition of Ro25-6981 to the same neuron further reduced currents by 13.7±1.4% (n=6) in the ACC (FIG. 6). […]

[5] = system: NMDAR-mediated currents in the hippocampus; assay: NMDAR-mediated EPSCs in hippocampal CA1 neurons; type: cell-based, mouse; settings: for depression of total NMDAR-mediated currents: hippocampal CA1 neurons
Description: as §1, §3, §4
The same experiment was repeated in the hippocampus.

NR1/NR2A = settings: cited from earlier work
NR1/NR2B = settings: cited from earlier work
[6] = FIG. 1E/F, BAPTA in the intracellular solution

NC(CCCP(=O)(O)O)C(=O)O (centres unmarked) [AP-5]
synaptic responses after pairing training (LTP), % of baseline ([1]; AP-5 50 μM): 97.8±5.7% | effect on LTP induced by pairing training [1, 6]: completely blocked

O=C(O)CN(CC(=O)O)c1ccccc1OCCOc1ccccc1N(CC(=O)O)CC(=O)O [BAPTA]
synaptic responses after pairing training (LTP), % of baseline ([1]; 11 mM BAPTA in the pipette solution): 106.1±10.3% | effect on LTP induced by pairing training [1, 6]: completely blocked

C[C@]12N[C@H](Cc3ccccc31)c1ccccc12 [MK-801]
contextual freezing (NMDAR-mediated signaling): reduced contextual freezing

C[C@H](NC(c1cccc2[nH]c(=O)c(=O)[nH]c12)P(=O)(O)O)c1ccc(Br)cc1 (some centres unmarked) [NVP-AAM077]
synaptic responses after pairing training (LTP), % of baseline ([1]; 0.1 μM): 134.9±6.9% | effect on LTP induced by pairing training ([1]; 0.1 μM, FIG. 3): partially depressed | synaptic responses after pairing training (LTP), % of baseline ([1]; 0.4 μM): 131.6±11.9% | effect on LTP induced by pairing training ([1]; 0.4 μM, FIG. 3): partially depressed | potentiation after EPSPs-APs protocol, % of baseline (adult ACC neurons [2]): 102.0±11.5% | effect on LTP induced by EPSPs-APs protocol (adult ACC neurons [2]; FIG. 4C): blocked | LTP after TBS, % of baseline (adult ACC neurons [3]): 97.0±13.4% | effect on LTP induced by TBS (adult ACC neurons [3]; FIG. 4F): blocked | depression of total NMDAR-mediated currents ([4]; 0.1 μM): 59.0±4.3% | depression of total NMDAR-mediated currents ([4]; 0.4 μM NVP-AAM077 added after first applying 0.3 μM Ro25-6981): 64.2±3.0% | depression of total NMDAR-mediated currents ([4]; 0.4 μM, applied alone or first): 63.2±1.7% | effect on total NMDAR-mediated currents ([4]; bath application of different doses, FIG. 5): depressed | depression of total NMDAR-mediated currents ([5]; 0.1 μM): 54.4±3.2% | depression of total NMDAR-mediated currents ([5]; 0.4 μM): 73.1±1.7% | effect on total NMDAR-mediated currents ([5]; hippocampus, bath application, FIG. 5): depressed | IC50 (NR1/NR2A): 14 nM | IC50 (NR1/NR2B): 1800 nM

CC(C(O)c1ccc(O)cc1)N1CCC(Cc2ccccc2)CC1 (centres unmarked) [ifenprodil]
synaptic responses after pairing training (LTP), % of baseline ([1]; 3 μM): 128.1±7.4% | effect on LTP induced by pairing training ([1]; 3 μM, FIG. 3): partially depressed | IC50 (NR1/NR2A): 146000 nM | IC50 (NR1/NR2B): 340 nM
